# Test results reported in patent US8232315B2, “Methods for treating drug addiction and improving addiction-related behavior” (SK Biopharmaceuticals Co., Ltd., priority 2009, dated 2012).
# Entries after “also recorded” stand apart in the source; their conditions may differ.
# System: rhesus monkeys trained to self-administer cocaine
# Assay: Cocaine self-administration, Rapid Assessment (Rapid Dose Effect) Procedure, cocaine dose-effect curve
# Format: in vivo, rhesus monkeys (Macaca mulatta)
# Method: The test compound (O-carbamoyl-(D)-phenylalaminol) was tested for the effects on cocaine self-administration in rhesus monkeys. Rhesus monkeys were trained to self-administer cocaine (0.032 mg/kg/inj, i.v.) and 1 g banana-flavored food pellets during 2-hr experimental sessions in the Rapid Assessment Procedure. Each session consisted of four 20-min components of drug availability (100-min), each separated by a 5-min timeout period. The four components of drug availability were preceded and followed by […] components of food availability. During training, unit doses of cocaine were varied across components of the session (0.001-0.03 or 0.01-0.32 mg/kg/inj) to provide full dose effect curves for cocaine self-administration. The position and slope of the dose-effect curve varied among monkeys and, generally, was represented by an inverted-U shape function characteristic for cocaine self-administration under fixed-ratio schedules. In some sessions, the unit dose of cocaine at the peak of the dose-effect curve for i.v. self-administration (0.0032 or 0.032 mg/kg/inj) was kept constant across components of the session. After baseline cocaine dose-effect curves and the effects of peak dose availability throughout the session were stable, experiments with test compound were begun.
# Next, the Rapid Assessment Procedure was used to evaluate the effects of a single i.m. dose of test compound on self-administration of a range of unit doses of cocaine within a single experimental session. […] During rapid assessment studies, food-maintained behavior was disrupted in two monkeys and unaffected in the remaining two monkeys, resulting in a >50% decrease in averaged response rates prior to or following sessions of cocaine self-administration.
# Subjects. Five male rhesus monkeys (Macaca mulatta), 89B013, 96D155, 97D105, RQ22 15, and 93N082, were trained to respond for the delivery of 1-g banana pellets under a program of gradually increasing values of a fixed-ratio (FR) schedule until performance was maintained under the terminal FR 30 response schedule. Then, a double-lumen intravenous catheter was surgically implanted under aseptic-conditions in each monkey. Subsequently, monkeys were trained to respond for cocaine (see below). All monkeys were maintained under identical housing conditions as specified under contract DA-7-8073. Individual monkeys had visual, auditory, and olfactory contact with other monkeys, and several types of enrichment devices were provided in the home chamber.
# Apparatus. All experimental equipment was identical to that used in our previously described drug self-administration studies. Briefly, each monkey was housed individually in a well-ventilated stainless steel chamber (64×64×79 cm). The home cages of all monkeys were modified to include an operant panel (28×28 cm) mounted on the front wall and fitted with response keys that could be trans-illuminated by red or green stimulus lights (LEDs). The operant panel also supported an externally-mounted pellet dispenser (Gerbrands, Model G5210) that delivered 1 gm fruit-flavored food pellets (P. J. Noyes Co., Lancaster, N.H.) to a food receptacle mounted on the cage beneath the operant response panel. Two syringe pumps (Model B5P-IE, Braintree Scientific, Braintree, Mass.; or Model 980210, Harvard Apparatus, South Natick, Mass.) were mounted above each cage for delivery of saline or drug solutions through the double-lumen intravenous catheters. Operation of the operant panels and data collection were accomplished with an LBM-compatible computer supplied by Med Associates, Inc., and located in an adjacent room. The experimental control hardware was supplied by Med Associates, Inc., and was controlled by customized-software written in MedState Notation.
# Test sessions. A diagram of the Rapid Assessment Procedure is shown in the drawing. Test sessions occurred twice daily beginning at 11 a.m. and 3 p.m. […]
# [1] = 32 mg/kg i.m. pretreatment, averaged for the group
# [2] = 32 mg/kg i.m., monkeys 96D155, 93N082 and 97D105
smiles,measurement,setting,value
"NC(=O)OC[C@H](N)Cc1ccccc1 [test compound, O-carbamoyl-(D)-phenylalaminol]",Displacement of the descending portion of the cocaine dose-effect curve,32 mg/kg i.m.,leftward and upward displacement
same,Effect on responding during availability of saline or low unit doses of i.v. cocaine (0.001-0.01 mg/kg),[1],either increased or did not change response rates; also recorded: increased responding
same,Effect on self-administration of higher unit doses of i.v. cocaine (0.032-0.32 mg/kg),[1],decreased cocaine self-administration behavior
same,"Decrease in food-maintained responding (averaged response rates), Food 1 and Food 2","32 mg/kg i.m., averaged for the group, rapid assessment",> 50%
same,"Decrease in food-maintained responding, Food 1","32 mg/kg i.m., monkey RQ2215",40%
same,Responding during availability of saline or unit doses of i.v. cocaine 0.001-0.032 mg/kg/injection,"32 mg/kg i.m., monkey RQ2215",inconsistently increased
same,Responding during availability of unit doses of 0.1 and 0.32 mg/kg cocaine,"32 mg/kg i.m., monkey RQ2215",unchanged
same,"Food-maintained responding, Food 1","32 mg/kg i.m., monkeys 93N082 and 97D105",nearly eliminated
same,Effect on i.v. self-administration during availability of higher unit doses of cocaine,[2],reduced i.v. self-administration behavior
same,Effect on responding during availability of saline or low unit doses of cocaine (0.001-0.01 mg/kg),[2],increased responding
same,"Food-maintained responding, Food 2",[2],nearly eliminated
